Data on twelve molecules can be found in ChEMBL document CHEMBL1201862, “PubChem BioAssay data set” (2004).

SMILES strings stand for the structures.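 Assay format: 96-well plates, 48-hour exposure. At the GI50, growth is halved.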 Active and inactive are the calls of the source. No stated cut-off is given here; in the data, active = GI50 up to about 1.1 µM and inactive = higher.

Some test systems named below: IGROV-1; MDA-N; U-251; OVCAR-3; HOP-62; UACC-257; NCI-H23; HCT-15; NCI-H522; M14; SR; SNB-75; SNB-19; A498; CAKI-1; OVCAR-4; SF-539; UACC-62; KM12; EKVX.
Holding throughout (experiment): NCI tumour cell line growth inhibition, 48 h

Consider `COP(=O)(OC)C(Cc1cn(C(C)=O)c2ccccc12)C(=O)O` (centres undefined), for which the GI50 in the assay on IGROV-1, with MDA-N, with U-251, in the assay with OVCAR-3, in the assay with HOP-62 and in the assay on UACC-257 was > 100 µM (inactive) each time. Moreover, the GI50 in the assay with NCI-H23 was > 100 µM (inactive); in the assay with HCT-15, more than 100 µM; in the assay with NCI-H522 it was > 100 µM (inactive); in the assay on M14, > 100 µM (inactive); in the assay on SR, > 100 µM (inactive); in the assay on SNB-75, > 100 µM (inactive). In addition, the GI50 in the assay on SNB-19, in the assay with A498, with CAKI-1 and with OVCAR-4 was > 100 µM (inactive) each time.
Turning to `COC(=O)C1=C(O)C(C(=O)OC)[C@]2(O)[C@@H](C(=O)OC)[C@H]1C[C@@H](c1ccccc1)[C@@H]2C(=O)OC` (some centres undefined), the GI50 was 5.01 µM (inactive) in the assay with MDA-N; 16.1 µM (inactive) with U-251; 13.8 µM (inactive) with OVCAR-3; 20 µM (inactive) in the assay on HOP-62; 10.3 µM (inactive) in the assay on UACC-257; 12.6 µM (inactive) with SF-539. The GI50 with NCI-H23 is 15.2 µM (inactive); in the assay with HCT-15, 13.1 µM; with UACC-62, 11.9 µM (inactive); in the assay with NCI-H522, 6.71 µM (inactive); with M14, 10.8 µM (inactive); in the assay with SR, 4.17 µM (inactive). Besides, the GI50 in the assay on SNB-75 was 16.9 µM (inactive); with SNB-19, 24.3 µM (inactive); with A498, 17.2 µM (inactive); in the assay with KM12 it was 11.7 µM (inactive); in the assay on EKVX it was 17.5 µM (inactive).
In the case of `Cc1c(OCc2ccccc2)c(=O)ccn1CCc1c[nH]c2ccccc12`, the GI50 in the assay on IGROV-1 is 26.6 µM (inactive); in the assay on MDA-N, 28.7 µM (inactive); with U-251 it was 29.6 µM (inactive); in the assay with OVCAR-3, 18.5 µM (inactive); in the assay on HOP-62, > 100 µM (inactive); in the assay on UACC-257, 73.8 µM (inactive). Also, the GI50 in the assay on SF-539 is 43.4 µM (inactive); with NCI-H23, 37.6 µM (inactive); with HCT-15 it was 74.8 µM; with UACC-62, 27.4 µM (inactive); in the assay on NCI-H522 it was 21.3 µM (inactive); with M14, 30 µM (inactive). Moreover, the GI50 is 27.6 µM (inactive) in the assay on SR, 32.7 µM (inactive) in the assay on SNB-19, 33.7 µM (inactive) in the assay with KM12 and 41.3 µM (inactive) in the assay with EKVX.
Regarding `O=P1(N2CCOCC2)OCCO1`, the GI50 is > 100 µM (inactive) in the assay with IGROV-1; > 100 µM (inactive) in the assay on MDA-N; > 100 µM (inactive) in the assay with U-251; > 100 µM (inactive) in the assay with UACC-257; > 100 µM (inactive) in the assay on NCI-H23; more than 100 µM in the assay on HCT-15. The GI50 in the assay with UACC-62, with NCI-H522, with M14, in the assay with SR, in the assay on SNB-19 and in the assay on A498 was > 100 µM (inactive) each time. In addition, the GI50 in the assay on KM12, with CAKI-1, in the assay with OVCAR-4 and with EKVX was > 100 µM (inactive) throughout.
Turning to `CCOC(=O)C[C@@H]1C2(C=C[C@@]13CO3)OCC(C)(C)CO2`, the GI50 in the assay on IGROV-1, with MDA-N, in the assay with U-251, in the assay on OVCAR-3, in the assay with HOP-62 and in the assay with UACC-257 was > 100 µM (inactive) in each case. Also, the GI50 in the assay on SF-539 was > 100 µM (inactive); in the assay with NCI-H23, > 100 µM (inactive); in the assay on HCT-15, more than 100 µM; with UACC-62, > 100 µM (inactive); with M14 it was > 100 µM (inactive); with SR, > 100 µM (inactive). Besides, the GI50 in the assay on SNB-75 is > 100 µM (inactive); in the assay on A498, > 100 µM (inactive); in the assay with CAKI-1, > 100 µM (inactive); with OVCAR-4, 8.2 µM (inactive); in the assay on EKVX it was > 100 µM (inactive).
Take `CCSc1nc(N)c2c(-c3ccc(OC)c(OC)c3)c3c(nc2n1)CCCC3`: the GI50 in the assay on IGROV-1, in the assay on MDA-N, in the assay on U-251, in the assay on OVCAR-3, with HOP-62 and in the assay with UACC-257 was > 100 µM (inactive) in each case. The GI50 with SF-539 is > 100 µM (inactive); with NCI-H23, > 100 µM (inactive); in the assay with HCT-15 it was more than 100 µM; in the assay on UACC-62, > 100 µM (inactive); with M14, > 100 µM (inactive); in the assay on SR it was > 100 µM (inactive). Moreover, the GI50 with SNB-75 is 58.2 µM (inactive); in the assay with SNB-19, > 100 µM (inactive); in the assay on KM12 it was > 100 µM (inactive); in the assay on CAKI-1 it was > 100 µM (inactive); with OVCAR-4, > 100 µM (inactive); in the assay with EKVX, > 100 µM (inactive).
As to `CN1CC=C(c2cccn2C)CC1`, the GI50 with IGROV-1, with MDA-N, in the assay on U-251, in the assay on OVCAR-3, with HOP-62 and in the assay on UACC-257 was > 100 µM (inactive) each time. Also, the GI50 in the assay with NCI-H23 was > 100 µM (inactive); in the assay on HCT-15, more than 100 µM; with UACC-62 it was > 100 µM (inactive); with NCI-H522, > 100 µM (inactive); in the assay on M14, > 100 µM (inactive); in the assay on SR it was > 100 µM (inactive). Also, the GI50 in the assay on SNB-75, in the assay with SNB-19, with KM12, in the assay with CAKI-1, in the assay on OVCAR-4 and in the assay with EKVX was > 100 µM (inactive) in each case.
Turning to `CC(=O)OC(C(=O)O)C(OC(C)=O)C(OC(C)=O)C(OC(C)=O)C(=O)O` (centres undefined), the GI50 with IGROV-1, with MDA-N, in the assay with U-251, in the assay with OVCAR-3, in the assay with HOP-62 and in the assay with UACC-257 was > 100 µM (inactive) each time. The GI50 was > 100 µM (inactive) in the assay with SF-539; > 100 µM (inactive) in the assay on NCI-H23; more than 100 µM in the assay on HCT-15; > 100 µM (inactive) in the assay with UACC-62; > 100 µM (inactive) in the assay on NCI-H522; > 100 µM (inactive) in the assay on M14. The GI50 with SR, in the assay on SNB-19, in the assay with A498, in the assay on KM12, in the assay on CAKI-1 and in the assay on EKVX was > 100 µM (inactive) in each case.
As to `CCOC(=O)c1c(-c2ccccc2)c(C)cn1C`, the GI50 in the assay on IGROV-1, in the assay on MDA-N, in the assay with U-251, in the assay on OVCAR-3, in the assay with UACC-257 and with SF-539 was > 10 µM (inactive) throughout. Further, the GI50 in the assay on NCI-H23 was > 10 µM (inactive); in the assay with HCT-15, more than 10 µM; with UACC-62, > 10 µM (inactive); in the assay on NCI-H522 it was > 10 µM (inactive); in the assay on M14, > 10 µM (inactive); in the assay with SR it was > 10 µM (inactive). Moreover, the GI50 with SNB-75, with SNB-19, in the assay with KM12, with OVCAR-4 and in the assay with EKVX was > 10 µM (inactive) each time.
Regarding `O=C1Oc2ccc([N+](=O)[O-])cc2N/C1=C\C(=O)c1ccccc1`, the GI50 in the assay on IGROV-1 is > 100 µM (inactive); in the assay with MDA-N, > 100 µM (inactive); in the assay with U-251, 78.5 µM (inactive); with OVCAR-3, > 100 µM (inactive); with HOP-62, > 100 µM (inactive); in the assay on UACC-257, > 100 µM (inactive). The GI50 is > 100 µM (inactive) in the assay with NCI-H23; more than 100 µM in the assay on HCT-15; > 100 µM (inactive) with UACC-62; 76.2 µM (inactive) with NCI-H522; > 100 µM (inactive) in the assay with M14; 74.1 µM (inactive) in the assay with SR. The GI50 with SNB-75 is 80 µM (inactive); in the assay with SNB-19, > 100 µM (inactive); in the assay on A498, > 100 µM (inactive); with KM12 it was 55.1 µM (inactive); with CAKI-1, > 100 µM (inactive); in the assay on OVCAR-4 it was > 100 µM (inactive). For the same molecule, the GI50 with EKVX is > 100 µM (inactive).
On to `CCP(=O)(CC)C(Cl)Cl`, for which the GI50 in the assay with IGROV-1, in the assay with MDA-N, in the assay on U-251, in the assay on OVCAR-3, in the assay with HOP-62 and with UACC-257 was > 100 µM (inactive) in each case. Besides, the GI50 in the assay with NCI-H23 was > 100 µM (inactive); in the assay on HCT-15 it was more than 100 µM; in the assay on NCI-H522 it was > 100 µM (inactive); with M14, > 100 µM (inactive); in the assay with SR, > 100 µM (inactive); with SNB-75 it was > 100 µM (inactive). For the same molecule, the GI50 in the assay with SNB-19, in the assay on CAKI-1 and in the assay with OVCAR-4 was > 100 µM (inactive) throughout.
For `COC(=O)C1(c2ccc(N(C)C)cc2OC)CCCN(C(=O)Oc2ccccc2[N+](=O)[O-])CCc2c1[nH]c1ccccc21` (centres undefined), the GI50 with IGROV-1, in the assay with MDA-N, with U-251, with OVCAR-3, in the assay with HOP-62 and in the assay with UACC-257 was > 100 µM (inactive) in each case. Moreover, the GI50 in the assay on SF-539, with NCI-H23, with UACC-62, in the assay on NCI-H522, with M14 and in the assay on SR was > 100 µM (inactive) each time. In addition, the GI50 in the assay with SNB-75, in the assay with A498, in the assay with KM12, with CAKI-1 and in the assay with EKVX was > 100 µM (inactive) in each case.
